Assay results reported in patent US20120114636A1, “LOW MOLECULAR WEIGHT CYCLIN E (LMW-E) AS A BIOMARKER FOR PERSONALIZATION OF CANCER THERAPIES” (The Board of Regents of the University of Texas System, priority 2009, published 2012).
“And” between values parts separate entries of the source, which are not always exact repeats. Equal entries are not always repeated.

Tests used:
Format in all cases: cell-based, human
[1] = tested on: CDK2 kinase activity in MCF-7/Ac1 cells; assay: CDK2 kinase assay in LacZ or cyclin E-T1 adenovirus-infected cells; settings: 1 μM letrozole
Description: MCF-7/Ac1 cells were cultured in IMEM with 10% charcoal-stripped serum medium (CSSM) without phenol red and with 600 μg/ml of G418 for 4 days before plating. Plates were then infected with LacZ (4000 m.o.i) or increasing concentration of cyclin E-T1 adenoviruses 24 hours before drug treatment. Cells were then left untreated (E2W, estrogen withdrawal) or treated with 25 nM AD (AD) or treated with 25 nM AD and 1 μM letrozole (AD+Let) and collected 3 days later for CDK2 kinase activity. CDK2 kinase assays were performed by immunoprecipitating equal amounts of cell lysate (250 μg) with monoclonal antibodies to CDK2 (D12, sc-6248) coupled to protein G beads, using histone H1 as substrate. The bar graph represents the densitometric values of the phosphorylated histone H1 substrate.

MCF-7/Ac1 cells [2] = assay: Sequential AD/letrozole then roscovitine treatment: cell number and CDK2 western blot; settings: LMW cyclin E overexpressing cells
Description: Medium alone or medium plus DMSO were used as controls. A schematic of the treatment strategy is depicted in FIG. 25A. At the conclusion of the treatment, cells were enumerated and subjected to western blot analysis with CDK2 (total) and phospho-CDK2 antibodies.
Cells were then infected with the indicated adenoviruses (at 4000 m.o.i.) 24 hours before drug treatment.

MCF-7/Ac1 cells [3] = assay: Cell growth by cell counting, AD-stimulated cells; settings: Homo sapiens, MCF7, 72 h, with 25 nM AD, 3 days, read-out: inhibition of AD-induced growth
Description: Cell growth. The effects of the aromatase inhibitors on MCF7/Ac1 cells growth were examined by counting the cells at the indicated time. The cells were detached from their flask using trypsin and counted using a Coulter counter machine.
To examine the effects of the three different aromatase inhibitors on the proliferation of MCF-7/Ac1 cells, cells were cultured in estrogen deprived, charcoal stripped serum media (CSSM). The response of the cells to 25 nM of androstenedione (AD) alone or AD plus one of the 3 aromatase inhibitors letrozole (FIG. 22A), anastrozole (FIG. 22B), and exemestane (FIG. 22C) was measured after 3 days of treatment. Cells maintained in CSSM were used as controls.
FIGS. 22A-22C show the effect of aromatase inhibitor treatment on proliferative response and cell cycle distribution of MCF-7/Ac1 cells. Cells were cultured in IMEM with 10% charcoal-stripped serum medium (CSSM) without phenol red and with 600 μg/ml of G418 for 4 days before plating. Cells (100,000) were seeded in 100 mm dishes and, 24 hrs later, were exposed for 3 days to the specific treatment. […] CSSM, untreated cells cultured in charcoal-stripped serum medium without phenol red and with 600 μg/ml of G418.

[4] = tested on: cyclin E and CDK2 complexes in MCF-7/Ac1 cells; assay: Immunoprecipitation of cyclin E or CDK2 followed by western blot for p21 and p27
Description: Immunoprecipitation and Immunoblotting. Two hundred fifty μg of cell extracts were used per immunoprecipitation with polyclonal antibody to cyclin E or polyclonal antibody to CDK2, coupled to protein A beads. After being washed, the immunoprecipitates were subjected to electrophoresis in 13% gels, transferred to Immobolin P, blocked, and incubated with the indicated antibodies as already described.
MCF-7/Ac1 cells were treated with the indicated concentrations of letrozole and AD for 3 days. Cyclin E kinase assays were performed by immunoprecipitating equal amounts of cell lysate (250 μg) with monoclonal antibodies to cyclin E coupled to protein A beads, using histone H1 as substrate. […] The same cell lysates were subjected to western blot analysis (50 μg of protein) with the indicated antibodies. […] The same cell lysates were first immunoprecipitated with cyclin E followed by western blot for p21 and p27. […] The same cell lysates were first immunoprecipitated with CDK2 followed by western blot for p21 and p27. The levels of proteins were measured by densitometric scanning of the corresponding bands and normalized using actin values. The values indicated at the bottom were compared to the values obtained with untreated cells.

## N#Cc1ccc(C(c2ccc(C#N)cc2)n2cncn2)cc1 [letrozole]
[1]; LMW cyclin E (T1) expressing cells, any m.o.i
  block of CDK2 kinase activity: cannot block
[1]; LacZ expressing cells
  block of AD-induced increase in CDK2 kinase activity: completely blocks
MCF-7/Ac1 cells [2]; AD plus 1 μM letrozole
  increase in AD-induced proliferation not prevented by letrozole: 2.5 fold and 2.8 fold
MCF-7/Ac1 cells [2]; AD plus letrozole
  phosphorylated/unphosphorylated CDK2 ratio: 134-234%
MCF-7/Ac1 cells [3]; 0.1 μM
  inhibition at 0.1 µM: 37.2%
MCF-7/Ac1 cells [3]; 1 μM
  inhibition at 1 µM: 63.5%
[4]; letrozole with 25 nM AD
  p21 binding to both cyclin E and CDK2: slightly decreased
[4]; letrozole, dose-dependent, with 25 nM AD
  increase in p27 binding to both cyclin E and CDK2 over levels in AD treated cells: up to 2 fold
